The record followed here is patent US8536187B2 (Gilead Sciences, Inc., priority 2008, dated 2013).

SMILES strings stand for the structures.

Data set [1] relates to HCV replicon in human hepatoma Huh-7 cell line. Briefly: Anti-HCV replicon assay, EC50 (luciferase luminescence). Type of data set: cell-based. To be noted: Hepatitis C virus, Huh-7, 72 h. On the procedure:
(§1) The anti-HCV activity of the pyrido[3,2-d]pyrimidine derivatives of this invention was tested in a human hepatoma Huh-7 cell line harboring a HCV replicon. The assay comprised the following steps: • Step 1: compound preparation and serial dilution: serial dilution is performed in 50% DMSO in a 384-well plate. A solution containing a compound at 100-fold concentration of the starting final serial dilution concentration was prepared in 50% DMSO and added to the pre-specified wells in column 1 of a polypropylene 384-well plate. The plate was then placed on a Precision 2000 Workstation to start the serial dilution. After the serial dilution, a volume of 2 μL of the solution was transferred from the 384-well plate to a 96-well cell culture plate containing 100 μL of cell media on a Biomek FX Workstation. The DMSO concentration in the final assay condition was 0.5% after cells are added to the plate and the total volume in each well is brought to 200 μL. • Step 2: to each well of the serial dilution plate prepared above, 100 μL of cell media containing 6000 suspended Huh-7 HCV replicon cells was added with a Multidrop workstation. The plates were incubated for 3 days at 37° C. with 5% CO2. • Step 3: detection: • a) for the EC50 assay, the media in a 96-well cell culture plate was aspirated with a Biotek EL405 plate-washer. A volume of 200 μL of a solution containing a 1:1 mixture of cell-lysis buffer (Promega, Luciferase Cell Culture Lysis 5× Reagent, cat. #E1531) and luciferase substrate solution (Promega, Luciferase Assay, cat.# E4550) was added to each well of the plate with Multidrop. The plate was incubated for 30 minutes at room temperature before the luminescence signal was measured with a TopCount plate-reader. • b) for the CC50 assay, a volume of 100 μL of pre-mixed CellTiter-Glo (Promega, cat.# G7572) solution is added directly to the cell culture in each well of the plate and the luminescence signal is measured with a TopCount plate-reader after 10 minutes of incubation at room temperature.
(In antiviral work, replicon cells carry a viral genome segment that copies itself.)

The nature of data set [2]: CC50 assay (CellTiter-Glo) in Huh-7 HCV replicon cells. Type of data set: cell-based. The settings on record: human. The procedure:
as §1
(In general: ATP-based viability assays read luminescence as a measure of living cells.)

As a reminder, the EC50 is the concentration needed to bring the measured effect to its halfway point. Low readings indicate higher potency in that assay, high ones lower potency in that assay. One may read the CC50 as the concentration at which the toxic effect on the cells reaches its halfway point. Take `COCCNc1nc(NCC(F)(F)F)c2nc(-c3ccc(OC)c(S(C)(=O)=O)c3)ccc2n1` [Example 153, 6-(4-methoxy-3-(methylsulfonyl)phenyl)-N^2-(2-methoxyethyl)-N^4-(2,2,2-trifluoroethyl)pyrido[3,2-d] pyrimidine-2,4-diamine]: the EC50 in data set [1] is less than 100 nM. The compound also yielded a CC50 at 3 days in data set [2] (Table 2, 3 days incubation) of more than 10000 nM.
Consider `CCC(=O)NS(=O)(=O)c1ccc(CNc2nc(NCC(F)(F)F)c3nc(-c4ccc(OC)c(S(C)(=O)=O)c4)ccc3n2)cc1` [Example 142, N-(4-((6-(4-methoxy-3-(methylsulfonyl)phenyl)-4-(2,2,2-trifluoroethylamino)pyrido[3,2-d]pyrimidin-2-ylamino)methyl)phenylsulfonyl) propionamide], for which, in data set [1], the EC50 lay within 250 to 2000 nM. In data set [2] (Table 2, 3 days incubation), this compound came in with a CC50 at 3 days of more than 10000 nM.
`CC(C)(C)NS(=O)(=O)c1cc(F)cc(CNc2nc(NC3(C(F)(F)F)CC3)c3nc(-c4ccc(F)nc4)ccc3n2)c1` [Example 78, N-tert-butyl-3-fluoro-5-((6-(6-fluoropyridin-3-yl)-4-(1-(trifluoromethyl)cyclopropyl-amino)pyrido[3,2-d]pyrimidin-2-ylamino)methyl)benzene-sulfonamide]: in data set [1], the EC50 is 100 to 250 nM. In data set [2] (Table 2, 3 days incubation), this compound gave a CC50 at 3 days of more than 10000 nM.
Compound `COc1ccc(-c2ccc3nc(NCc4ccc(F)c(F)c4)nc(NCC(F)(F)F)c3n2)cc1S(C)(=O)=O` [Example 161, N^2-(3,4-difluorobenzyl)-6-(4-methoxy-3-(methylsulfonyl)phenyl)-N^4-(2,2,2-trifluoroethyl) pyrido[3,2-d]pyrimidine-2,4-diamine] displayed an EC50 in data set [1] of less than 100 nM. Moreover, the CC50 at 3 days in data set [2] (Table 2, 3 days incubation) is more than 10000 nM.
In data set [1], `CN1CCN(c2ccc(-c3ccc4nc(NCc5cccc(S(C)(=O)=O)c5)nc(NC5(C(F)(F)F)CC5)c4n3)cc2)C1=O` [Example 50, 1-(4-(2-(3-(methylsulfonyl)benzylamino)-4-(1-(trifluoromethyl)cyclopropylamino)pyrido[3,2-d]pyrimidin-6-yl)phenyl)-3-methylimidazolidin-2-one] came in with an EC50 of less than 100 nM. This compound also displayed a CC50 at 3 days in data set [2] (Table 2, 3 days incubation) of 1000 to 10000 nM.
In turn, `Cc1ccc(-c2ccc3nc(NCc4ccc(-n5cncn5)cc4)nc(NC4(C(F)(F)F)CC4)c3n2)cc1S(N)(=O)=O` [Example 42, 5-(2-(4-(1H-1,2,4-triazol-1-yl)benzylamino)-4-(1-(trifluoromethyl)cyclopropyl-amino)pyrido[3,2-d]pyrimidin-6-yl)-2-methylbenzene-sulfonamide] yielded an EC50 in data set [1] of less than 100 nM. Further, in data set [2] (Table 2, 3 days incubation), the CC50 at 3 days fell in the range of 1000 to 10000 nM.
The matching figures for `C[C@H](Cn1cncn1)Nc1nc(NCC(F)(F)F)c2nc(C#CC3CC3)ccc2n1` [Example 281, (R)-N^2-(1-(1H-1,2,4-triazol-1-yl)propan-2-yl)-6-(2-cyclopropyl-ethynyl)-N^4-(2,2,2-trifluoro-ethyl)pyrido[3,2-d]pyrimidine-2,4-diamine]: 250 to 2000 nM and more than 10000 nM.
`NS(=O)(=O)c1ccc(CNc2nc(NCC(F)(F)F)c3nc(-c4ccc(F)cc4)ccc3n2)cc1C(F)(F)F` [Example 9, 4-{[6-(4-Fluoro-phenyl)-4-(2,2,2-trifluoro-ethylamino)-pyrido[3,2-d]pyrimidin-2-ylamino]-methyl}-2-trifluoromethyl-benzenesulfonamide] had an EC50 in data set [1] of 250 to 2000 nM. The CC50 at 3 days in data set [2] (Table 1, 3 days incubation) is more than 25000 nM.
For the compound `CC(C)(C)NS(=O)(=O)c1cc(F)cc(CNc2nc(NC3(C(F)(F)F)CC3)c3nc(-c4ccc(Cl)c(S(C)(=O)=O)c4)ccc3n2)c1` [Example 38, N-tert-butyl-3-((6-(4-chloro-3-(methylsulfonyl)phenyl)-4-(1-(trifluoromethyl)cyclopropyl-amino)pyrido[3,2-d]pyrimidin-2-ylamino)methyl)-5-fluorobenzenesulfonamide], in data set [1], the EC50 was less than 100 nM. The compound further came in with a CC50 at 3 days in data set [2] (Table 2, 3 days incubation) of more than 10000 nM.
On the same counts, the results for `COc1ccc(-c2ccc3nc(NCc4cccc(F)c4)nc(NC4(C(F)(F)F)CC4)c3n2)cc1S(C)(=O)=O` [Example 105, N^2-(3-fluorobenzyl)-6-(4-methoxy-3-(methylsulfonyl)phenyl)-N^4-(1-(trifluoromethyl)cyclopropyl)pyrido[3,2-d] pyrimidine-2,4-diamine] are less than 100 nM and more than 10000 nM.
The compound `C[C@@H](Nc1nc(NC2(C(F)(F)F)CCCCC2)c2nc(-c3ccc(F)cc3)ccc2n1)c1ccc(S(N)(=O)=O)cc1` [Example 67, (R)-4-(1-(6-(4-fluorophenyl)-4-(1-(trifluoromethyl)cyclohexylamino)pyrido[3,2-d]pyrimidin-2-ylamino)ethyl)benzenesulfonamide] registered an EC50 in data set [1] of 250 to 2000 nM. Moreover, the CC50 at 3 days in data set [2] (Table 2, 3 days incubation) was more than 10000 nM.
In data set [1], `NS(=O)(=O)c1ccc(CNc2nc(NC3(C(F)(F)F)CC3)c3nc(-c4ccc(F)cc4)ccc3n2)cc1` [Example 23, 4-{[6-(4-fluoro-phenyl)-4-(1-trifluoromethyl-cyclopropylamino)-pyrido[3,2-d]pyrimidin-2-ylamino]-methyl}-benzenesulfonamide] registered an EC50 of less than 100 nM. Besides, the CC50 at 3 days in data set [2] (Table 2, 3 days incubation) fell in the range of 1000 to 10000 nM.
`C#Cc1ccc2nc(NCc3ccc(S(N)(=O)=O)cc3)nc(OC3CC3)c2n1` [Example 300, 4-((4-cyclopropoxy-6-ethynylpyrido[3,2-d]pyrimidin-2-ylamino)methyl) benzenesulfonamide] gave a 50% effective concentration (EC50) in data set [1] of 250 to 2000 nM. In data set [2] (Table 2, 3 days incubation), this compound showed a CC50 at 3 days of 1000 to 10000 nM.
In turn, `CS(=O)(=O)c1cccc(-c2ccc3nc(NCCO)nc(NCC(F)(F)F)c3n2)c1` [Example 162, 2-(6-(3-(methylsulfonyl)phenyl)-4-(2,2,2-trifluoroethyl-amino)pyrido[3,2-d]pyrimidin-2-ylamino)ethanol] came in with an EC50 in data set [1] of 250 to 2000 nM. The CC50 at 3 days in data set [2] (Table 2, 3 days incubation) was more than 10000 nM.
In data set [1], `CS(=O)(=O)c1cccc(-c2ccc3nc(NCc4ccc(S(N)(=O)=O)cc4)nc(OC4CC4)c3n2)c1` [Example 22, 4-{[4-Cyclopropoxy-6-(3-methanesulfonyl-phenyl)-pyrido[3,2-d]pyrimidin-2-ylamino]-methyl}-benzenesulfonamide] yielded an EC50 of less than 100 nM. For the same compound, the CC50 at 3 days in data set [2] (Table 1, 3 days incubation) was more than 25000 nM.
With `COc1ccc(-c2ccc3nc(NCc4cccc(-n5cccn5)c4)nc(NCC(F)(F)F)c3n2)cc1S(C)(=O)=O` [Example 140, N^2-(3-(1H-pyrazol-1-yl)benzyl)-6-(4-methoxy-3-(methylsulfonyl)phenyl)-N^4-(2,2,2-trifluoroethyl)pyrido [3,2-d]pyrimidine-2,4-diamine], in data set [1], the EC50 was less than 100 nM. Further, in data set [2] (Table 2, 3 days incubation), the CC50 at 3 days fell in the range of 1000 to 10000 nM.
Regarding `CC(C)Oc1nc(N[C@H](C)c2ccc(S(N)(=O)=O)cc2)nc2ccc(C#CC3CC3)nc12` [Example 304, (R)-4-(1-(6-(2-cyclopropyl-ethynyl)-4-isopropoxypyrido [3,2-d]pyrimidin-2-ylamino)ethyl)benzenesulfonamide], in data set [1], the EC50 is less than 100 nM. In data set [2] (Table 2, 3 days incubation), this compound registered a CC50 at 3 days of more than 10000 nM.
The matching figures for `COc1ccc(-c2ccc3nc(NC(C)c4cc(F)cc(F)c4)nc(NCC(F)(F)F)c3n2)cc1S(N)(=O)=O` (centres unmarked) [Example 235, 5-(2-(1-(3,5-difluorophenyl)ethylamino)-4-(2,2,2-trifluoroethylamino)pyrido [3,2-d]pyrimidin-6-yl)-2-methoxybenzenesulfonamide]: 100 to 250 nM and 1000 to 10000 nM.
Turning to `Fc1ccc(-c2ccc3nc(NCc4ccc(-n5ccnc5)cc4)nc(NC4(C(F)(F)F)CC4)c3n2)cc1` [Example 126, N^2-(4-(1H-imidazol-1-yl)benzyl)-6-(4-fluorophenyl)-N^4-(1-(trifluoromethyl)cyclopropyl)pyrido[3,2-d] pyrimidine-2,4-diamine], the EC50 in data set [1] is 250 to 2000 nM. This compound also came in with a CC50 at 3 days in data set [2] (Table 2, 3 days incubation) of 1000 to 10000 nM.
`Cc1cc(S(N)(=O)=O)ccc1[C@@H](C)Nc1nc(NC2(C(F)(F)F)CC2)c2nc(-c3ccc(F)cc3)ccc2n1` [Example 117, (R)-4-(1-(6-(4-fluorophenyl)-4-(1-(trifluoromethyl)cyclopropyl-amino)pyrido[3,2-d]pyrimidin-2-ylamino)ethyl)-3-methylbenzene-sulfonamide] returned an EC50 in data set [1] of less than 100 nM. The CC50 at 3 days in data set [2] (Table 2, 3 days incubation) was more than 10000 nM.
On to `CS(=O)(=O)c1cccc(CNc2nc(NC3(C(F)(F)F)CC3)c3nc(-c4ccc(F)cc4)ccc3n2)c1` [Example 86, N^2-(3-(methylsulfonyl)benzyl)-6-(4-fluorophenyl)-N^4-(1-(trifluoromethyl)cyclopropyl) pyrido[3,2-d]pyrimidine-2,4-diamine], for which, in data set [1], the EC50 is less than 100 nM. Further, the CC50 at 3 days in data set [2] (Table 2, 3 days incubation) is more than 10000 nM.
On to `C[C@@H](Nc1nc(NC2(C(F)(F)F)CCC2)c2nc(-c3ccc(F)cc3)ccc2n1)c1ccc(S(N)(=O)=O)cc1` [Example 72, (R)-4-(1-(6-(4-fluorophenyl)-4-(1-(trifluoromethyl)cyclo-butylamino)pyrido[3,2-d]pyrimidin-2-ylamino)ethyl) benzenesulfonamide], for which the EC50 in data set [1] lay within 250 to 2000 nM. Also, the CC50 at 3 days in data set [2] (Table 2, 3 days incubation) is more than 10000 nM.
